Source: patent publication US20240009173A1, “Use of 5-HT3-Targeting Drugs for Treatment of Acute Kidney Injury” (priority 2020, published 2024)
Like-named read-outs stand apart in the source and are kept apart here.

Assays:
[1] = test system: ICU patients with AKI; conditions: cited from earlier work
[2] = test system: patients with AKI; conditions: human, in vivo
[3] = test system: patients with AKI; conditions: human, in vivo; remark: listed apart in the source
[4] = test system: all ICU patients; conditions: cited from earlier work
[5] = test system: patients with AKI; parameters: species or system human; conditions: in vivo
[6] = literature and/or clinical trials

Row | Compound | Reported for protecting effect in ICU patients with AKI [1, 6] | Death rate in eICU database [2] | Death rate in MIMIC III database [3] | Reported for protecting effect in all ICU patients [4, 6] | Coefficient [5] | Reported for protecting effect in ICU patients with AKI [1] | Reported for protecting effect in all ICU patients [4]
1 | CCCCc1oc2ccccc2c1C(=O)c1cc(I)c(OCCN(CC)CC)c(I)c1 [Amiodarone] | N | 269.89 per 1,000 patients | 338.95 per 1,000 patients | N | 0.090 |  | 
2 | [H]/N=C(\N/C(=N/[H])NCCCCCCNC(=N)NC(=N)Nc1ccc(Cl)cc1)Nc1ccc(Cl)cc1 [Chlorhexidine] |  | 222.98 per 1,000 patients | 328.48 per 1,000 patients |  |  |  | 
3 | Cc1ncc([N+](=O)[O-])n1CCO [Metronidazole] |  | 230.12 per 1,000 patients | 338.05 per 1,000 patients |  |  |  | 
4 | NS(=O)(=O)c1cc(C(=O)O)c(NCc2ccco2)cc1Cl [Furosemide] | Y^8 | 120.87 per 1,000 patients | 214.64 per 1,000 patients | Y^7 | −0.036 |  | 
5 | CC(C)c1cccc(C(C)C)c1O [Propofol] |  | 261.45 per 1,000 patients | 287.82 per 1,000 patients |  |  | Y^17 | Y^16
6 | CCN1CCN(C(=O)N[C@@H](C(=O)N[C@@H]2C(=O)N3[C@@H]2SC(C)(C)[C@@H]3C(=O)O)c2ccccc2)C(=O)C1=O [Piperacillin] | N | 200.39 per 1,000 patients | 336.96 per 1,000 patients | Y |  |  | 
7 | CC(=O)CC(c1ccccc1)c1c(O)c2ccccc2oc1=O (stereo not shown) [Warfarin] | N | 35.34 per 1,000 patients | 67.31 per 1,000 patients | Y^1 | −0.115 |  | 
8 | CC(=O)Oc1ccc(C(c2ccc(OC(C)=O)cc2)c2ccccn2)cc1 [Bisacodyl] |  | 156.59 per 1,000 patients | 194.46 per 1,000 patients |  | −0.021 |  | 
9 | COc1ccnc(C[S+]([O-])c2nc3ccc(OC(F)F)cc3[nH]2)c1OC (stereo not shown) [Pantoprazole] |  | 151.82 per 1,000 patients | 254.46 per 1,000 patients |  | −0.025 |  | 
10 | COCCc1ccc(OCC(O)CNC(C)C)cc1 (stereo not shown) [Metoprolol] | N | 107.87 per 1,000 patients | 169.99 per 1,000 patients | Y^11 | −0.051 |  | 
11 | C[C@@H](O)[C@H]1C(=O)N2C(C(=O)O)=C(S[C@@H]3CN[C@H](C(=O)N(C)C)C3)[C@H](C)[C@H]12 [Meropenem] | Y^13 | 269.96 per 1,000 patients | 460.50 per 1,000 patients | Y^12 | 0.076 |  | 
12 | CC1=C(C/C=C(\C)CCC[C@H](C)CCC[C@H](C)CCCC(C)C)C(=O)c2ccccc2C1=O [Phytonadione] | N | 335.33 per 1,000 patients | 364.17 per 1,000 patients | Y |  |  | 
13 | CC(C)(C)NCC(O)c1ccc(O)c(CO)c1 (stereo not shown) [Albuterol] |  | 174.59 per 1,000 patients | 257.20 per 1,000 patients |  |  |  | 
14 | COc1ccc([C@@H]2Sc3ccccc3N(CCN(C)C)C(=O)[C@@H]2OC(C)=O)cc1 [Diltiazem] |  | 121.74 per 1,000 patients | 274.96 per 1,000 patients |  |  |  | 
15 | NNc1nncc2ccccc12 [Hydralazine] |  | 80.60 per 1,000 patients | 155.12 per 1,000 patients |  | −0.035 |  | 
16 | NC[C@H](O)c1ccc(O)c(O)c1 [Norepinephrine] | N | 336.62 per 1,000 patients | 497.51 per 1,000 patients | Y^2 | 0.167 |  | 
17 | CO/N=C(\C(=O)N[C@@H]1C(=O)N2C(C(=O)[O-])=C(C[N+]3(C)CCCC3)CS[C@H]12)c1csc(N)n1 [Cefepime] |  | 228.51 per 1,000 patients | 340.81 per 1,000 patients |  |  |  | 
18 | NC(N)=Nc1nc(CSCCC(N)=NS(N)(=O)=O)cs1 [Famotidine] |  | 184.42 per 1,000 patients | 260.79 per 1,000 patients |  |  |  | 
19 | C[C@]12C=CC(=O)C=C1CC[C@@H]1[C@@H]2C(=O)C[C@@]2(C)[C@H]1CC[C@]2(O)C(=O)CO [Prednisone] |  | 60.49 per 1,000 patients | 191.30 per 1,000 patients |  |  |  | 

Row | Compound | Reported for protecting effect in ICU patients with AKI [1, 6] | Death rate in eICU database [2] | Death rate in MIMIC III database [3] | Reported for protecting effect in all ICU patients [4, 6] | Coefficient [5] | Reported for protecting effect in ICU patients with AKI [1] | Reported for protecting effect in all ICU patients [4]
20 | OC[C@H]1O[C@@H](O[C@@H]2[C@@H](CO)OC(O)(CO)[C@H]2O)[C@H](O)[C@@H](O)[C@H]1O (mixture of isomers) [Lactulose] | N | 233.56 per 1,000 patients | 326.35 per 1,000 patients | N |  |  | 
21 | CN1CC[C@]23c4c5ccc(O)c4O[C@H]2[C@@H](O)C=C[C@H]3[C@H]1C5 [Morphine] |  | 234.81 per 1,000 patients | 376.48 per 1,000 patients |  | 0.198 | N | Y^1
22 | CC(C)[N+]1(C)[C@@H]2CC[C@H]1C[C@@H](OC(=O)C(CO)c1ccccc1)C2 (stereo partly shown) [Ipratropium] |  | 172.83 per 1,000 patients | 258.87 per 1,000 patients |  |  |  | 
23 | CC(=O)Nc1ccc(O)cc1 [Acetaminophen] | N | 123.47 per 1,000 patients | 181.26 per 1,000 patients | N | −0.040 |  | 
24 | O=[N+]([O-])OCC(CO[N+](=O)[O-])O[N+](=O)[O-] [Nitroglycerin] |  | 758.55 per 1,000 patients | 192.42 per 1,000 patients |  |  | N | N
25 | CC(=O)Oc1ccccc1C(=O)O [Aspirin] |  | 126.32 per 1,000 patients | 178.97 per 1,000 patients |  |  |  | 
26 | Heparin | N | 143.03 per 1,000 patients | 210.41 per 1,000 patients | Y^10 | −0.053 |  | 
27 | O=C1Nc2ccc(Cl)cc2C(c2ccccc2Cl)=NC1O (stereo not shown) [Lorazepam] |  | 228.92 per 1,000 patients | 285.59 per 1,000 patients |  | 0.031 | N | N
28 | Insulin |  | 172.01 per 1,000 patients | 241.12 per 1,000 patients |  |  |  | 
29 | C[C@H](CS)C(=O)N1CCC[C@H]1C(=O)O [Captopril] | Y^19 |  | 133.04 per 1,000 patients | Y^18 | −0.044 |  | 
30 | C=CC[C@@H]1/C=C(\C)C[C@H](C)C[C@H](OC)[C@H]2O[C@@](O)(C(=O)C(=O)N3CCCC[C@H]3C(=O)O[C@H](/C(C)=C/[C@@H]3CC[C@@H](O)[C@H](OC)C3)[C@H](C)[C@@H](O)CC1=O)[C@H](C)C[C@@H]2OC [Tacrolimus] |  | 40 per 1,000 patients | 153.28 per 1,000 patients |  |  |  | 
31 | CC(C)c1c(C(=O)Nc2ccccc2)c(-c2ccccc2)c(-c2ccc(F)cc2)n1CC[C@@H](O)C[C@@H](O)CC(=O)O [Atorvastatin] |  | 88.66 per 1,000 patients | 156.06 per 1,000 patients |  |  |  | 
32 | OC(Cn1cncn1)(Cn1cncn1)c1ccc(F)cc1F [Fluconazole] | Y^6 |  | 333.33 per 1,000 patients | Y^5 |  |  | 
33 | N[C@@H](Cc1cc(I)c(Oc2cc(I)c(O)c(I)c2)c(I)c1)C(=O)O [Levothyroxine] |  | 109.02 per 1,000 patients | 218.39 per 1,000 patients |  |  |  | 
34 | C[C@@H]1C[C@H]2[C@@H]3CCC4=CC(=O)C=C[C@]4(C)[C@@]3(F)[C@@H](O)C[C@]2(C)[C@@]1(O)C(=O)CO [Dexamethasone] |  | 58.14 per 1,000 patients | 375 per 1,000 patients |  |  |  | 
35 | CN[C@H](CC(C)C)C(=O)N[C@H]1C(=O)N[C@@H](CC(N)=O)C(=O)N[C@H]2C(=O)N[C@H]3C(=O)N[C@H](C(=O)N[C@H](C(=O)O)c4cc(O)cc(O)c4-c4cc3ccc4O)[C@H](O)c3ccc(c(Cl)c3)Oc3cc2cc(c3O[C@@H]2O[C@H](CO)[C@@H](O)[C@H](O)[C@H]2O[C@H]2C[C@](C)(N)[C@H](O)[C@H](C)O2)Oc2ccc(cc2Cl)[C@H]1O [Vancomycin] |  | 229.29 per 1,000 patients | 300.03 per 1,000 patients |  |  |  | 
36 | C[C@H]1COc2c(N3CCN(C)CC3)c(F)cc3c(=O)c(C(=O)O)cn1c23 [Levofloxacin] |  | 146.84 per 1,000 patients | 270.20 per 1,000 patients |  |  |  | 
37 | Glucagon |  | 129.74 per 1,000 patients | 176.04 per 1,000 patients |  | −0.050 |  | 
